According to patent US10155754B2, “Substituted 2-imino-1,3-thiazolidin-4-ones as N-arachidonoylethanolamine cellular uptake inhibitors” (UNIVERSITAT BERN, priority 2014, dated 2018):

Columns and labels:
[1] = test system: AEA cellular uptake (U937 cells); assay: [3H]-AEA cellular uptake inhibition in U937 cells; format: cell-based; conditions: Homo sapiens, U-937, U937 cells, final 100 nM AEA with 0.5 nM [3H]-AEA, 15 min at 37° C.; read-out: AEA uptake IC50
Summary of the method: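 U937 cells (0.5×10^6 per sample) pre-incubated with compound (100 pM–100 μM, triplicates) for 15 min at 37 °C, then given 100 nM AEA including 0.5 nM [3H]-AEA for 15 min. Filtration, washing and scintillation counting of cell-associated radioactivity; IC50 by four-parameter nonlinear regression.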

[2] = target: T1, FAAH (Homo sapiens, UniProt O00519); assay: FAAH activity: hydrolysis of [3H]-AEA in U937 cell homogenates; format: biochemical; conditions: [3H]-AEA hydrolysis, final 100 nM AEA, read-out: FAAH inhibition IC50
T1 construct: endogenous in cells; host or cells: U937 cell homogenate
T1 sequence (O00519 1-579): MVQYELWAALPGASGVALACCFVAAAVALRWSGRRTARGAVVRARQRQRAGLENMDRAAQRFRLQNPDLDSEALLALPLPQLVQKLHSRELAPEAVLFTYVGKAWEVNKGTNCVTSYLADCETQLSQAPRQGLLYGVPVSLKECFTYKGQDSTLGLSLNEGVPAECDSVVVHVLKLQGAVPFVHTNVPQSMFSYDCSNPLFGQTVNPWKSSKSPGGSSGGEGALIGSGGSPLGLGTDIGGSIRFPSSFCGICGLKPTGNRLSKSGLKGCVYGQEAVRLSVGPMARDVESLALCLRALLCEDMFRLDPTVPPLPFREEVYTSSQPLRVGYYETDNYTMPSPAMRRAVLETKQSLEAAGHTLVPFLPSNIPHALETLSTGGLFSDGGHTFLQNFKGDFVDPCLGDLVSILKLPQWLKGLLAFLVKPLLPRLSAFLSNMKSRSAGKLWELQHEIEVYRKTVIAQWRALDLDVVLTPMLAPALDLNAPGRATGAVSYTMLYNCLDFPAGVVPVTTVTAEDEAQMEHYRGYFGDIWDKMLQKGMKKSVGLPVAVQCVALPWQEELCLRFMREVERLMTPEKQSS
Procedure: Hydrolysis of [^3H]-AEA by FAAH was determined as previously described in cell homogenates of U937 cells (0.18 mg protein) (Omeir et al., 1999, Biochem Biophys Res Commun, 264, 316-20; Mor et al., 2004, J Med Chem, 47, 4998-5008). Protein amounts of cell homogenates corresponded to 0.5×10^6 cells (U937), to assure best possible comparability of IC50 values as used for the AEA cellular uptake assays. URB597 was used as positive control. Protein quantification was performed using a BCA assay (Thermo Scientific). Enzyme activity was assessed by addition of vehicle or compounds in 10 μL DMSO to 490 μL homogenate in 10 mM Tris HCl, 1 mM EDTA, 0.1% (w/v) BSA fatty acid free, pH=8 and incubation for 15 min at 37° C. After, a mixture of AEA plus [ethanolamine-1-^3H]-AEA (0.5 nM) at final 100 nM was added to the homogenates and incubated for 15 min at 37° C. The reaction was stopped by addition of 1 mL ice-cold CHCl3:MeOH (1:1) followed by vigorous vortexing. Phase separation was achieved by centrifugation at 10'000×g at 4° C. for 10 min. Radioactivity of the separated aqueous phase (upper phase) containing [^3H-ethanolamine] or [^3H-glycerol] was measured by liquid scintillation counting on a Tri-Carb 2100 TR liquid scintillation analyzer after addition of 3.5 mL Ultima Gold scintillation cocktail (PerkinElmer Life Sciences). Results are expressed as hydrolysis of tritium substrate in percent of vehicle treated control. IC50 values were calculated by GraphPad®. Data are reported as means of n=3 independent experiments performed in triplicates.

How did the IC50 [1] turn out when `Cc1ccc(/N=C2\S/C(=C\c3ccc4[nH]ccc4c3)C(=O)N2c2ccc(C)cc2)cc1` [03_A_A, (2Z,5Z)-5-((1H-indol-5-yl)methylene)-2-(p-tolylimino)-3-p-tolylthiazolidin-4-one] was run?
Its IC50 is 315 nM.

What about the IC50 [2] of the same compound?
Its IC50 is greater than 100000 nM.

`CC(C)CN1C(=O)/C(=C/c2ccc3[nH]ccc3c2)S/C1=N\c1ccc(F)cc1` [03_B_X, (2Z,5Z)-5-((1H-indol-5-yl)methylene)-2-(4-fluorophenylimino)-3-isobutylthiazolidin-4-one] was tested. Which IC50 [1] did it give?
Its IC50 is 479 nM.

And the IC50 [2]?
The IC50 was greater than 100000 nM.

Which results are given for `O=C1/C(=C/c2ccc3[nH]ccc3c2)S/C(=N\Cc2ccc(F)cc2)N1c1ccccc1` [03_P_N, (2Z,5Z)-5-((1H-indol-5-yl)methylene)-2-(4-fluorobenzylimino)-3-phenylthiazolidin-4-one]?
IC50 [1]: 403 nM; IC50 [2]: < 10000 nM

`O=C1/C(=C/c2ccc3[nH]ccc3c2)S/C(=N\Cc2ccccc2Cl)N1c1ccccc1` [03_T_N, (2Z,5Z)-5-((1H-indol-5-yl)methylene)-2-(2-chlorobenzylimino)-3-phenylthiazolidin-4-one] was tested. Which IC50 [1] did it give?
Its IC50 is 262 nM.

What about the IC50 [2] of the same compound?
The IC50 was greater than 100000 nM.

Which results are given for `Cc1ccc(/N=C2\S/C(=C\c3ccc4[nH]cnc4c3)C(=O)N2c2ccc(C)cc2)cc1` [04_A_A, (2Z,5Z)-5-((1H-benzo[d]imidazol-5-yl)methylene)-2-(p-tolylimino)-3-p-tolylthiazolidin-4-one]?
IC50 [1]: 390 nM; IC50 [2]: > 100000 nM

Which IC50 [1] does the source give for `Cc1ccc(/N=C2\S/C(=C\c3ccc4[nH]cnc4c3)C(=O)N2c2ccccc2)cc1` [04_A_N, (2Z,5Z)-5-((1H-benzo[d]imidazol-5-yl)methylene)-2-(p-tolylimino)-3-phenylthiazolidin-4-one] here?
Its IC50 is 107 nM.

What about the IC50 [2] of the same compound?
Its IC50 is greater than 100000 nM.

Which IC50 [1] does the source give for `Cc1ccc(/N=C2\S/C(=C\c3ccc4[nH]cnc4c3)C(=O)N2CC(C)C)cc1` [04_A_X, (2Z,5Z)-5-((1H-benzo[d]imidazol-5-yl)methylene)-2-(p-tolylimino)-3-isobutylthiazolidin-4-one] here?
The IC50 was 155 nM.

What about the IC50 [2] of the same compound?
Its IC50 is 14500 nM.

Which results are given for `O=C1/C(=C/c2ccc3[nH]cnc3c2)S/C(=N\c2ccc(F)cc2)N1C1CCCCC1` [04_B_I, (2Z,5Z)-5-((1H-benzo[d]imidazol-5-yl)methylene)-2-(4-fluorophenylimino)-3-cyclohexylthiazolidin-4-one]?
IC50 [1]: 132 nM; IC50 [2]: 22900 nM

Which IC50 [1] does the source give for `COc1ccc(N2C(=O)/C(=C/c3ccc4[nH]cnc4c3)S/C2=N\Cc2ccccc2)cc1` [04_C_F, (2Z,5Z)-5-((1H-benzo[d]imidazol-5-yl)methylene)-2-(benzylimino)-3-(4-methoxyphenyl)thiazolidin-4-one] here?
The IC50 was 484 nM.

And the IC50 [2]?
Its IC50 is greater than 10000 nM.

How did the IC50 [1] turn out when `COc1ccc(/N=C2\S/C(=C\c3ccc4[nH]cnc4c3)C(=O)N2c2ccccc2)cc1` [04_F_N, (2Z,5Z)-5-((1H-benzo[d]imidazol-5-yl)methylene)-2-(4-methoxyphenylimino)-3-phenylthiazolidin-4-one] was run?
Its IC50 is 164 nM.

What about the IC50 [2] of the same compound?
The IC50 was greater than 100000 nM.

Which IC50 [1] does the source give for `COCc1cccc(/C=C2\S/C(=N\Cc3ccc(OC)cc3)N(c3ccccc3)C2=O)c1` [15_Q_N, (2Z,5Z)-5-(3-(methoxymethyl)benzylidene)-2-(4-methoxybenzylimino)-3-phenylthiazolidin-4-one] here?
The IC50 was 368 nM.

What about the IC50 [2] of the same compound?
The IC50 was less than 10000 nM.

With `Cc1ccc(/N=C2\S/C(=C\c3ccc(CO)cc3)C(=O)N2c2ccc(C)cc2)cc1` [22_A_A, (2Z,5Z)-5-(4-(hydroxymethyl)benzylidene)-2-(p-tolylimino)-3-p-tolylthiazolidin-4-one] as the compound, how does the IC50 [1] read?
Its IC50 is 341 nM.

What about the IC50 [2] of the same compound?
The IC50 was greater than 100000 nM.

`Cc1ccc(/N=C2\S/C(=C\c3ccc(CO)cc3)C(=O)N2c2ccccc2)cc1` [22_A_N, (2Z,5Z)-5-(4-(hydroxymethyl)benzylidene)-2-(p-tolylimino)-3-phenylthiazolidin-4-one] was tested. Which IC50 [1] did it give?
Its IC50 is 111 nM.

And the IC50 [2]?
The IC50 was 19500 nM.

With `Cc1ccc(/N=C2\S/C(=C\c3ccc(CO)cc3)C(=O)N2CC(C)C)cc1` [22_A_X, (2Z,5Z)-5-(4-(hydroxymethyl)benzylidene)-2-(p-tolylimino)-3-isobutylthiazolidin-4-] as the compound, how does the IC50 [1] read?
The IC50 was 150 nM.

And the IC50 [2]?
Its IC50 is greater than 100000 nM.

Which IC50 [1] does the source give for `Cc1ccc(N2C(=O)/C(=C/c3ccc(CO)cc3)S/C2=N\c2ccc(F)cc2)cc1` [22_B_A, (2Z,5Z)-5-(4-(hydroxymethyl)benzylidene)-2-(4-fluorophenylimino)-3-p-tolylthiazolidin-4-one] here?
Its IC50 is 386 nM.

And the IC50 [2]?
Its IC50 is greater than 100000 nM.

How did the IC50 [2] turn out when `O=C1/C(=C/c2ccc3c(c2)OCCO3)S/C(=N\c2ccc(F)cc2)N1C1CCCCC1` [22_B_I] was run?
The IC50 was greater than 100000 nM.

Which IC50 [1] does the source give for `CC(C)CN1C(=O)/C(=C/c2ccc(CO)cc2)S/C1=N\c1ccc(F)cc1` [22_B_X, (2Z,5Z)-5-(4-(hydroxymethyl)benzylidene)-2-(4-fluorophenylimino)-3-isobutylthiazolidin-4-one] here?
The IC50 was 127 nM.

And the IC50 [2]?
The IC50 was 19100 nM.

What does the source list for `COc1ccc(/N=C2\S/C(=C\c3ccc(CO)cc3)C(=O)N2c2ccccc2)cc1` [22_F_N, (2Z,5Z)-5-(4-(hydroxymethyl)benzylidene)-2-(4-methoxyphenylimino)-3-phenylthiazolidin-4-one]?
IC50 [1]: 135 nM; IC50 [2]: > 100000 nM

`O=C1/C(=C/c2ccc(CO)cc2)S/C(=N\CCCc2ccccc2)N1c1ccccc1` [22_K_N, (2Z,5Z)-2-(3-phenylpropylimino)-5-(4-(hydroxymethyl)benzylidene)-3-phenylthiazolidin-4-one] was tested. Which IC50 [1] did it give?
The IC50 was 97 nM.

And the IC50 [2]?
Its IC50 is 6610 nM.

For `O=C1/C(=C/c2ccccc2)S/C(=N\Cc2ccccc2)N1c1ccccc1` [23_C_N, (2Z,5Z)-5-benzylidene-2-(benzylimino)-3-phenylthiazolidin-4-one], which IC50 [1] is on record?
The IC50 was 180 nM.

What about the IC50 [2] of the same compound?
The IC50 was greater than 10000 nM.

How did the IC50 [1] turn out when `Cc1ccc(/N=C2\S/C(=C\c3ccc4c(c3)OCCO4)C(=O)N2c2ccc(C)cc2)cc1` [24_A_A, (2Z,5Z)-2-(p-tolylimino)-5-((2,3-dihydrobenzo[b][1,4]dioxin-6-yl)methylene)-3-p-tolylthiazolidin-4-one] was run?
The IC50 was 286 nM.

What about the IC50 [2] of the same compound?
Its IC50 is greater than 100000 nM.

For `Cc1ccc(/N=C2\S/C(=C\c3ccc4c(c3)OCCO4)C(=O)N2C2CCCCC2)cc1` [24_A_I, (2Z,5Z)-3-cyclohexyl-5-(2,3-dihydro-1,4-benzodioxin-6-ylmethylene)-2-(p-tolylimino)thiazolidin-4-one], which IC50 [1] is on record?
Its IC50 is 301 nM.

And the IC50 [2]?
The IC50 was greater than 100000 nM.

How did the IC50 [1] turn out when `O=C1/C(=C/c2ccc3c(c2)OCCO3)S/C(=N\c2ccc(F)cc2)N1c1ccc(F)cc1` [24_B_B, (2Z,5Z)-2-(4-fluorophenylimino)-3-(4-fluorophenyl)-5-((2,3-dihydrobenzo[b][1,4]dioxin-6-yl)methylene)thiazolidin-4-one] was run?
The IC50 was 170 nM.

What about the IC50 [2] of the same compound?
Its IC50 is greater than 100000 nM.

Which IC50 [1] does the source give for `O=C1/C(=C/c2ccc3c(c2)OCCO3)S/C(=N\c2ccc(F)cc2)N1C1CCCCC1` [24_B_I, (2Z,5Z)-2-(4-fluorophenylimino)-3-cyclohexyl-5-((2,3-dihydrobenzo[b][1,4]dioxin-6-yl)methylene)thiazolidin-4-one] here?
Its IC50 is 141 nM.

What about the IC50 [2] of the same compound?
The IC50 was greater than 100000 nM.

`O=C1/C(=C/c2ccc3c(c2)OCCO3)S/C(=N\Cc2ccccc2)N1c1ccc(F)cc1` [24_C_B, (2Z,5Z)-2-(benzylimino)-3-(4-fluorophenyl)-5-((2,3-dihydrobenzo[b][1,4]dioxin-7-yl)methylene)thiazolidin-4-one] was tested. Which IC50 [2] did it give?
The IC50 was greater than 100000 nM.

`O=C1/C(=C/c2ccc3c(c2)OCCO3)S/C(=N\Cc2ccccc2)N1Cc1ccccc1` [24_C_C, (2Z,5Z)-3-benzyl-2-(benzylimino)-5-((2,3-dihydrobenzo[b][1,4]dioxin-7-yl)methylene)thiazolidin-4-one] was tested. Which IC50 [2] did it give?
Its IC50 is greater than 100000 nM.

For `COc1ccc(N2C(=O)/C(=C/c3ccc4c(c3)OCCO4)S/C2=N\Cc2ccccc2)cc1` [24_C_F, (2Z,5Z)-2-(benzylimino)-5-((2,3-dihydrobenzo[b][1,4]dioxin-7-yl)methylene)-3-(4-methoxyphenyl)thiazolidin-4-one], which IC50 [2] is on record?
The IC50 was greater than 100000 nM.
